For data set [1], the system named is DV (Dengue Virus). Nature of the data set: Yield Reduction Assay (YRA), Dengue virus in BHK cells. It is filed as cell-based.
The subject of data set [2] is BVDV (Bovine Viral Diarrhea Virus). Nature of the data set: Cytopathic Effect Assay (CPEA), BVDV in BND cells. The conditions noted are these: Bovine viral diarrhea virus isolates and strains. The data set is classed as cell-based.
Another data set has as its system viral protein NS3. Nature of the data set: Western blot analysis of viral NS3 protein. The conditions noted are these: 25 μg/ml, 24 hours post infection, MOI of 10. It is filed as cell-based, Bovine Viral Diarrhea Virus. The protocol: MDBK cells were infected with NADL strain of BVDV (MOI 10) in the presence or absence of 25 μg/ml of geneticin. Based on previous publications, the 18-24 h post-infection time point was chosen to determine viral proteins in infected cells. […] Thus, at 24 h post-infection, cell media was removed and cells were washed several times with PBS. Then, 2× concentrated electrophoresis sample buffer was added, cells were scraped from the dish and transferred to a microcentrifuge tube. To reduce viscosity, the samples were sonicated briefly or passed several times through a 26-gauge needle and boiled for 5 min. Fifteen micrograms of lysate sample were run on 10% SDS-PAGE and then transblotted. After blocking for 1 h in blocking buffer (5% dry milk in 0.05% Tween 20 in PBS), membranes were incubated with primary antibody (MAb 20.10.6) diluted 1:1,000 in blocking buffer for 60 min at room temperature and washed with 0.05% Tween 20 in PBS. After incubation with secondary antibody (anti-mouse IgG-HRP; Sigma) diluted 1:200 in blocking buffer for 60 min at room temperature, NS3 was detected with the Amersham ECL kit according to the manufacturer's instructions (Amersham Biosciences, Piscataway, N.J., USA).

Data set [3] concerns DV (Dengue Virus). Nature of the data set: Cytopathic Effect Assay (CPEA), Dengue virus in BHK cells. The data set is classed as cell-based. On the technique in general: Damage to the host cells serves as the signal in cytopathic effect assays.
Data set [4] deals with BVDV (Bovine Viral Diarrhea Virus). Nature of the data set: microbe, parasite or virus in culture. The data set is classed as cell-based. The conditions noted are these: for inhibition of virus yield: 6-25 μg/ml, 24 and 48 hours post infection.
Data set [5] relates to YFV (Yellow Fever Virus). Nature of the data set: microbe, parasite or virus in culture. It is filed as cell-based. The conditions noted are these: read-out: CPEA EC50.
The test system of data set [6] is BVDV (Bovine Viral Diarrhea Virus). Nature of the data set: Cytopathic Effect Assay (CPEA) / cell viability, BVDV in MDBK cells. As to conditions: for EC50: Bovine viral diarrhea virus isolates and strains, MDBK.
Data set [7] is described as follows: Cytotoxicity (CC50) in BND cells. As to conditions: bottlenose dolphin, BND skin cells. The data set is classed as cell-based, Bottle Nose Dolphin.
A short description of data set [8]: Cytotoxicity (CC50) in BHK cells. It is filed as cell-based. As to conditions: hamster.
Data set [9] in a line: Cytotoxicity / cell viability in MDBK cells. It is filed as cell-based, Bovine. The conditions noted are these: bovine, MDBK cells.
Data set [10] relates to MDBK (Madin-Darby Bovine Kidney) cells. Nature of the data set: Cytotoxicity / cell viability in MDBK cells. The data set is classed as cell-based.
In data set [11] the test system is YFV (Yellow Fever Virus). Nature of the data set: microbe, parasite or virus in culture. The data set is classed as cell-based. As to conditions: read-out: YRA EC50.
A further data set deals with BVDV. Nature of the data set: Antiviral activity against BVDV (structure-function analysis). It is filed as cell-based, Bovine Viral Diarrhea Virus.

In brackets after ≈: the same amount, converted by molar mass. Read-outs that look alike come from different tables or passages of the source. Bounds are passed on as bounds.

As a reminder, the CC50 is the concentration giving 50% cytotoxicity. Low readings indicate harm at low concentration, high ones better tolerance by the cells.

Turning to `CN[C@@H]1[C@@H](O)[C@@H](O[C@@H]2[C@@H](O)[C@H](O[C@H]3O[C@H]([C@@H](C)O)[C@@H](O)[C@H](O)[C@H]3N)[C@@H](N)C[C@H]2N)OC[C@]1(C)O` [Geneticin], the EC50 is 5 µg/mL (≈ 10.1 µM) in the data set with DV (Dengue Virus) [1]; 50 µg/mL (≈ 101 µM) in [2]; 4 µg/mL (≈ 8.06 µM) with DV (Dengue Virus) [3]; ~4 µg/mL (≈ 8.06 µM) in data set [4] (Bovine viral diarrhea virus isolates and strains, MDBK, BVDV, MDBK cells, read-out: YRA EC50); 20 µg/mL (≈ 40.3 µM) with YFV (Yellow Fever Virus) [5]; ~4 µg/mL (≈ 8.06 µM) in [6] (read-out: CPEA EC50, BVDV, MDBK cells). For the same compound, the EC50 was 4 µg/mL (≈ 8.06 µM) in [6] (read-out: EC50 concentration for antiBVDV activity, BVDV) and 10 µg/mL (≈ 20.1 µM) in the data set with YFV (Yellow Fever Virus) [11]. Besides, the “synthesis of the viral protein NS3” value in the data set with viral protein NS3 is recorded as “no effect”. For the same compound, the viral production result in data set [4] was “below 10 % of control”. The “inhibition of virus yield” value in data set [4] (NADL strain) and in [4] (NY-1 strain) was 10-100 fold throughout. Also, the values for the CC50 in data set [7], in data set [8] and in [9] were > 2000 µg/mL, 160 µg/mL (≈ 322 µM) and 400 µg/mL (≈ 806 µM), respectively. For the same compound, in data set [10] (31-250 μg/ml, 72 hours), the “MDBK cell viability (uninfected)” value was “no effect”. The “concentration with cell toxicity (downward curve of cell viability)” value in data set [10] (high doses) was “above 400 μg/ml”.
`CC(=O)O[C@H]1C[C@@]2(C)[C@@H](C[C@@H](O)[C@H]3[C@@]4(C)CC[C@@H](O)[C@@H](C)[C@@H]4CC[C@@]32C)/C1=C(\CCC=C(C)C)C(=O)O` [fusidic acid]: in the data set with BVDV, the “antiviral activity against BVDV” value is “inactive”.
For `NC[C@@H]1O[C@H](O[C@H]2[C@@H](O)[C@H](O[C@@H]3[C@@H](O)[C@H](N)C[C@H](N)[C@H]3O[C@H]3O[C@H](CO)[C@@H](O)[C@H](O)[C@H]3N)O[C@@H]2CO)[C@H](N)[C@@H](O)[C@@H]1O` [paromomycin], in the data set on BVDV, the “antiviral activity against BVDV” value is “no antiviral activity”.
As to gentamicin, the “cell viability of cpBVDV-infected cells (cytoprotection against NADL)” value in [6] (NADL, MDBK cells, 12 μg/ml per drug) is “decreased the cell viability”.

Source of the values: patent US20090010880A1 (priority 2007, published 2009).
